The numbers were not newly measured in patent publication US20100317664A1, “METHODS OF AFFECTING GASTROINTESTINAL TRANSIT AND GASTRIC EMPTYING, AND COMPOUNDS USEFUL THEREIN” (priority 2007, published 2010), which cites them from elsewhere.

Series [1] concerns rats. The conditions noted are these: parenteral injection to rats.
For series [2], the system named is humans.

Turning to `N[C@@H](Cc1ccc(Cl)cc1)C(=O)O` (racemic) [p-chlorophenylalanine], the gastrointestinal motility result in series [1] is “decreased their gastrointestinal motility”. Also, in series [2] (in vivo), the adverse psychological effects entry is “adverse psychological effects, such as dizziness, nausea and uneasiness”; the “entry into the central nervous system” value is on record as “readily gets into the central nervous system”. Besides, the constipation entry in series [2] (oral administration, high doses (3000 mg/day), humans) was “causes constipation”.
